This note sets out measurements from BindingDB's records for doi:10.1021/jm50001a017 (1985).

The target in experiment [1] is Beta-2 adrenergic receptor (Mus musculus) (UniProt P18762). Put plainly: KD constant value was evaluated for the displacement of ICYP (iodocyanopindolol) binding.
For experiment [2] the target is unchanged. Put plainly: KD constant value was evaluated for the displacement of ICYP (iodocyanopindolol) binding in […] lymphoma cell.

Chain of Beta-2 adrenergic receptor (Mus musculus) (P18762 whole entry, looked up): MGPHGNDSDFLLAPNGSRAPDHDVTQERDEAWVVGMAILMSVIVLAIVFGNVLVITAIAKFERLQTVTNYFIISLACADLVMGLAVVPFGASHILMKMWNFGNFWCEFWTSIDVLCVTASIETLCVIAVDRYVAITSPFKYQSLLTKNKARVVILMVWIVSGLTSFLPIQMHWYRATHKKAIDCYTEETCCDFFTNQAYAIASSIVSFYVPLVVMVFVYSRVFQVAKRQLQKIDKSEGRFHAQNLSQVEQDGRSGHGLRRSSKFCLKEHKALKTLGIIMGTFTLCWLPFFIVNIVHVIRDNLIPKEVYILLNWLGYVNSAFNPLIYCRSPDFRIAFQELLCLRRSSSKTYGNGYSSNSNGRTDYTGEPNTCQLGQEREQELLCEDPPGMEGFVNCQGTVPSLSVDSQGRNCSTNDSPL

As to `Cc1ccc(C(=O)NCCCCC(C)NCC(O)c2ccc(O)c(O)c2)cc1` (stereo not drawn), the Kd in experiment [1] was 0.32 µM.
Turning to `Cc1ccc(NC(=O)NCCCCC(C)NCC(O)c2ccc(O)c(O)c2)cc1` (stereo not drawn), binding in experiment [2] was put at a Kd of 470 nM.
For `CC(CCCCN)NCC(O)c1ccc(O)c(O)c1` (stereo not drawn), the Kd in experiment [1] was 10 µM.
